SMILES strings stand for the structures.

Assay [1] deals with panel of 402 kinases. The assay can be described thus: Ambit KINOMEscan ATP-site competition binding, panel of 402 kinases. As to conditions: concentration of 10 μM, Erk5 = BMK1.
For assay [2], the target named is T1, BMK1 (Homo sapiens, UniProt Q13164). The assay can be described thus: Ambit KINOMEscan single-point score. The class given is binding. As to conditions: concentration of 10 μM.
The target of assay [3] is T1, BMK1. Kind of assay: EGF-stimulated BMK1 autophosphorylation in HeLa cells. As to conditions: concentration of 1 μM.

T1 sequence (Q13164 whole entry): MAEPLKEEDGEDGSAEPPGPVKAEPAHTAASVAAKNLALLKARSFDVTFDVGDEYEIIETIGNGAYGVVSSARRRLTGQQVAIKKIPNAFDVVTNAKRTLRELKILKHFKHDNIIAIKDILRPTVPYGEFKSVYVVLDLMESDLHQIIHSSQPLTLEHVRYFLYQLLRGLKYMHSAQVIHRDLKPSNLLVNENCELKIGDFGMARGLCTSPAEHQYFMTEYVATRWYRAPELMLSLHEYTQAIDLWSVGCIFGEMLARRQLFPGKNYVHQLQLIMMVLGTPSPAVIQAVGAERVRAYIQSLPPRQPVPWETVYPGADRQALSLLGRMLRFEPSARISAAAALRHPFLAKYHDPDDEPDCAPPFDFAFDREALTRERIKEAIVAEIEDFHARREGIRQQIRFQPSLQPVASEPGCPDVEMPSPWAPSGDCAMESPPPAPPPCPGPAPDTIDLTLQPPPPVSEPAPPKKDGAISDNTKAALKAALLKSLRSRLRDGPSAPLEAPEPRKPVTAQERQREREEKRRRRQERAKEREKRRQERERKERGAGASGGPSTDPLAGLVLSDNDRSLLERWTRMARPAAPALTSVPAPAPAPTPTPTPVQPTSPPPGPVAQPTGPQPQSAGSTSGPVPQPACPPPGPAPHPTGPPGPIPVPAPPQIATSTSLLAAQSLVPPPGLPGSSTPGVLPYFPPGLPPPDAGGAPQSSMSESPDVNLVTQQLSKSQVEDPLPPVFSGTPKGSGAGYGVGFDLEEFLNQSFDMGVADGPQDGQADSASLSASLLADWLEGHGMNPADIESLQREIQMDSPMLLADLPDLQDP

As to `COc1cc(N2CCN(C)CC2)ccc1Nc1ncc2c(n1)N(C)c1ccccc1C(=O)N2C` [compound 11], the “kinase hits (kinases that exhibited greater than 95% displacement from an immobilized ligand)” value in assay [1] was “DCAMKL1, DCAMKL2, ERK5, FRK, MNK2, PKD1, PKD2, RSK4∼b, TAO1, TAO3, TNK1, TNK2, ULK1, ULK2”. Moreover, the “ambit score against BMK1” value in assay [2] is 0. Moreover, the “inhibition of BMK1 autophosphorylation” value in assay [3] is “significantly inhibited”.

Turning to `COc1cc(N2CCN(C)CC2)ccc1Nc1ncc2c(n1)N(C)c1ccccc1C(=O)N2` [compound 10], the “kinase hits (kinases that exhibited greater than 95% displacement from an immobilized ligand)” value in assay [1] was “ABL1(F317I), BRK, C-FMS, DCAMKL1, DCAMKL2, ERK5, FRK, GAK, KIT(L576P), MYLK4, TNK1, TNK2”. Further, the “ambit score against BMK1” value in assay [2] was determined as 0.5.

Values taken from publication PMC3055678 (ACS Medicinal Chemistry Letters, 2011).
